The values below come from patent US7235548B2, “Compounds and their use as positive AMPA receptor modulators” (NeuroSearch A/S, priority 1998, dated 2007).

Assay [1] has as its system AMPA receptors. As to the kind of experiment: AMPA evoked single neuron spike activity in rat hippocampus (iontophoretic application of AMPA), in vivo. Particulars: 10 mg kg^−1 i.v. The source says: Evaluation of the in vivo effects of positive AMPA modulators (PAMs) on the AMPA evoked spike activity in rat hippocampus. Hippocampal single neuron spike activity is strongly influenced by excitatory input, and iontophoretic application of AMPA induces spike activity in vivo in a dose-dependent manner ([…] et al. 1998). […] PAMs potentate AMPA receptor activation in vitro, and if this mechanism also operates in vivo, the i.v. injection of an PAM should enhance AMPA evoked spike activity. Thus, the aim of this study was to test the in vivo effect of a group of in vitro active PAMs. This have been done by studying their ability to enhances AMPA evoked spike activity after i.v. administration. Experiments were performed on male Wistar rats (M & B, Denmark) weighing 280-380 g, housed in two per cage with free access to food and water. […] Additional anaesthetic was given i.v. if the rat responded to a pinch of the back foot. The trachea was cannulated and the rats were placed in a stereotaxic frame and ventilated by a rodent ventilator (Ugo Basile, Comerio-Varese, Italy). Core body temperature was maintained at 37.5° C. by a DC heating pad. The left and dorsal part of the parietal bone was removed by craniotomy and the dura was withdrawn exposing the pia mater and underlying brain, covered with 0.9% NaCl. AMPA (Sigma, USA) was dissolved at 10 mM in 0.2 M NaCl. NMDA (Sigma, USA) was dissolved at 100 mM in 100 mM NaCl. Both solutions were adjusted to pH 7.5-8.0 with NaOH. COMPOUND 61 was dissolved in 200 mM CH3SO3^- Na^+ at a contration of 10 mM for iontophoretic application ([…]) and in isotonic glucose (278 mM) for i.v. administration. Cyclothiazide, COMPOUND 63, COMPOUND 56, COMPOUND 115 and COMPOUND 114 were all dissolved at in 5% chremophore solution at a concentration of 5 mg ml^-1. Evoked neuronal spike activity was analyzed on-line by a computer, saving single spikes and time of event. Neuronal spike activity (number of action potentials s^-1) was monitored on a pulse rate histogram together with indicators for AMPA, COMPOUND 61 and vehicle application. Extracellular recordings of single hippocampal neuron spikes were made with five-barrel glass microelectrodes (5B120F-6, World Precision Instruments Inc., Sarasota, Fla., USA) with a tip diameter of 10-12 μm. The individual barrels were filled with 5 M NaCl (recording), 400 mM NaCl (current balancing), 10 mM COMPOUND 61 in 200 mM CH3SO3^- Na^+ (pH 4.7), 200 mM CH3SO3^- Na^+ (pH 4.7, Vehicle), and the last barrel was filled with the AMPA. Experiments were performed on hippocampal neurons (A=5.5-6.5 mm, L=1.5-2.0 mm, H=2.0-3.0 mm, according to Paxinos & Watson, 1986). Neuronal spike activity was evoked by iontophoretic application of AMPA for periods of 10 to 15 s with 1.5 min intervals. Single neuron spike activity was amplified 5000 times with a bandwidth of 0.3 and 3 kHz (CyberAmp 320 with a Al 402 x50 smartprobe, Axon Instruments, California, USA). On-line and off-line analyses were performed by the Spike2 program with a 1401 plus interface (Cambridge Electronic Design Limited, England). The computer program also recorded mean arterial blood pressure and monitored and controlled iontophoretic application. AMPA was ejected into hippocampus in regular cycles of 100-105 s. […] Recording of neuronal spike activity was continued for at least 45 min after intravenous injection. The PAM reactivity was tested by microiontophoretic application of COMPOUND 61 (20 nA, FIG.).

Assay [2] concerns AMPA receptor. As to the kind of experiment: Voltage clamp (whole cell patch clamp), current induced by AMPA in cultured mouse neocortical neurons. The class given is cell-based. As to the method:
Experiments were performed in voltage clamp using conventional whole cell patch clamp methods (Hamill et al., 1981), essentially as described previously (Mathiesen et al., 1998). The following salt solutions were used (mM): NaCl (140), KCl (4), CaCl2 (2), MgCl2 (1), Sucrose (30), Tetrodotoxin (0.0003), Bicuculline Methiodide (0.005) and HEPES (10, pH 7.4). Intracellular solution (mM): CsCl (120), CsF (20), MgCl2 (2), EGTA (10), HEPES (10, pH=7.2).
Mouse neocortical neurons were cultured essentially as described by Drejer et al. (1987). Briefly, the forebrains from embryonic (E17) NMRI mice were removed under sterile conditions. The tissue was chopped in 0.4 mm cubes and the triturated with trypsin (12.5 μg/ml) and DNAse (2.5 μg/ml), 15 min, 37° C. The cells were suspended at a concentration of 1×10^6 cells/ml in a slightly modified DMEM which contained horse serum (10% (v/v)), penicillin (333 U/ml), paraaminobenzoic acid (1 mg/ml), L-glutamine (0.5 mM), insulin (0.08 U/ml) and KCl (23.8 mM). The cell suspension was subsequently inoculated into poly-L-lysine coated 35 mm Petri dishes (2 ml/dish). Glass coverslips (3.5 mm) were placed in the dishes before coating. After 24 hr in culture, the medium was replaced by freshly made medium containing 1% N2 supplement instead of serum.
The cells were kept in culture for 7–14 days at 37° C. (5% CO2/95% O2) before experiments were carried out.
Electronics, programs and data acquisition: The amplifier used was the EPC-9 (HEKA-electronics, Lambrect, Germany) run by a Power Macintosh G3 computer via an ITC-16 interface. Experimental conditions were set with the Pulse-software accompanying the amplifier. Data were low pass filtered and sampled directly to hard-disk at a rate of 3 times the cut-off frequency.
Pipettes and electrodes: Pipettes were pulled from borosilicate glass (Modulohm, Copenhagen, Denmark) using a horizontal electrode puller (Zeitz-Instrumente, Augsburg, Germany). The pipette resistances were 1.7–2.4 MW in the salt solutions used in these experiments. The pipette electrode was a chloridized silver wire, and the reference was a silverchloride pellet electrode (In Vivo Metric, Healdsburg, USA) fixed to the experimental chamber. The electrodes were zeroed with the open pipette in the bath just prior to sealing.
Experimental procedure: Coverslips were transferred to a […] experimental chamber mounted on the stage of an inverted microscope (IMT-2, Olympus) supplied with Nomarski optics. The neurons were continuously superfused with extracellular saline at a rate of 2.5 ml/min. After giga-seal formation (1–5 GW, success-rate≈90%) the whole cell configuration was attained by suction.
The cells were held at a holding voltage of −60 mV and at the start of each experiment the current was continuously measured for at least 30 sec to ensure a stable leak current. AMPA-containing solutions were delivered to the chamber through a custom-made gravity-driven flowpipe, the tip of which was placed approximately 50 μm from the cell. Application was triggered when the tubing connected to the flow pipe was compressed by a valve controlled by the Pulse-software. AMPA (30 μM) was applied for 1 sec every 45 sec. After obtainment of responses of a repeatable amplitude the compound to be tested was included in both the chamber and in the AMPA-containing solution. The compound was present until responses of a new repeatable was obtained.
The sample interval in all experiments was 310 μsec.
All experiments were performed at room temperature (20–25° C.).
(In general: The patch-clamp technique gives a direct electrical read-out from membranes.)

As to `O=S1(=O)NC(C2CCCCC2)Nc2ccc(S(=O)(=O)N3CCCCC3)cc21` (centres unmarked) [Compound 56, 3-Cyclohexyl-7-piperidinosulfonyl-1,2,3,4-tetrahydro-1,2,4-benzothiadiazine-1,1-dioxide], the “onset of the enhancement after i.v. administration” value in assay [1] is listed as “approximately 10 min”. Besides, the “AMPA evoked spike activity” value in assay [1] (rat hippocampus) was “enhancement”. Also, the “reversibility of the potentiation” value in assay [2] (after wash out of the compound) is “reversible”. Further, in assay [2] (compound 3 μM), the “persistence of the effect after wash out” value is “persits for several minutes after wash out”. Moreover, the “potentiation of the current induced by application of 30 μM AMPA” value in assay [2] (compound 3 μM, holding voltage −60 mV) was “potentiated”.
